The text below walks through data of US20210363213A1, “GLUCAGON-GLP-1-GIP TRIPLE AGONIST COMPOUNDS” (priority 2013, published 2021).

Numbered stars: 1 amine (or outer) side, 2 acyl side, 3 side chain; on linkers, the order of the positions; unused ones are H or OH. Square brackets hold non-standard residues; d marks the D form. Side chains are listed from the residue outwards. Peptide text beside a SMILES is read from it. * marks the point of attachment. γGlu = O=C(O)[C@H](CCC(=O)[*:2])N[*:1]; Stearoyl = CCCCCCCCCCCCCCCCCC(=O)*; AEEA = NCCOCCOCC(=O)O; Aib = CC(C)(N)C(=O)O

The target of one assay is T1, human GLP-1 R (Homo sapiens, UniProt P43220).
T1 construct: expressed in transfected cells
T1 sequence (P43220 24-463): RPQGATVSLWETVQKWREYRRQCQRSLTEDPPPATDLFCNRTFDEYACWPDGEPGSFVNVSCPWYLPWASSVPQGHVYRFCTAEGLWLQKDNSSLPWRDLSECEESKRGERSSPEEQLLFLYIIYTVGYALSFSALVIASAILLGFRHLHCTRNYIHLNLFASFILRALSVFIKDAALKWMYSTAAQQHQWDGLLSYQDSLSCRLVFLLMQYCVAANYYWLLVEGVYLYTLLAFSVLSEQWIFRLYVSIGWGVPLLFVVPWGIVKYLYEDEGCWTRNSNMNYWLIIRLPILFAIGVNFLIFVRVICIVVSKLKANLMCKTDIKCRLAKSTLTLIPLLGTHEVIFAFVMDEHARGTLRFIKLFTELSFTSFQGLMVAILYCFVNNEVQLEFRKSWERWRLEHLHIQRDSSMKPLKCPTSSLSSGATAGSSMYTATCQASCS
The assay is described as follows: Human GLP-1 receptor (GLP-1-R) activity assay, cAMP induction (AlphaScreen) in HEK293 cells. Particulars: Table 2b (most comprehensive data); average EC50; cAMP in HEK293 cells expressing human GLP-1 R; read-out: GLP1 R (EC50 in nM). It is filed as cell-based. (In general: In Alpha technology, singlet oxygen from a donor bead excites a nearby acceptor bead.)

A further assay deals with T2, human GIP R (Homo sapiens, UniProt P48546).
T2 construct: expressed in transfected cells
T2 sequence (P48546 22-466): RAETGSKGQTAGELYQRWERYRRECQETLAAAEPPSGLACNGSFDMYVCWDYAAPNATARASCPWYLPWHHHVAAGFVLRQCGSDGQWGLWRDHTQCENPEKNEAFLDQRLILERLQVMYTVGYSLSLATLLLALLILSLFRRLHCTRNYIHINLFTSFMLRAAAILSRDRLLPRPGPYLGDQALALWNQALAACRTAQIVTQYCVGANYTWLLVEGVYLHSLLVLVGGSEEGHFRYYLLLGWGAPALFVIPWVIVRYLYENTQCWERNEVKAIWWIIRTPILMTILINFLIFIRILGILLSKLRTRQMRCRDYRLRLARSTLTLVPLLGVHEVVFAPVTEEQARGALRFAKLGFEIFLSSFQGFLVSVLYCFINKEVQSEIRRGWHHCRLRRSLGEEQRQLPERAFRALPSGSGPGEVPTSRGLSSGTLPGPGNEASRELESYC
Kind of assay: Human GIP receptor (GIP-R) activity assay, cAMP induction (AlphaScreen) in HEK293 cells. It is filed as cell-based. Particulars: Table 2b (most comprehensive data); average EC50; cAMP in HEK293 cells expressing human GIP R; read-out: GIP R (EC50 in nM).

For orientation: EC50 means the concentration giving half of the maximal effect.

Protocol for human GIP R: (§1) Briefly, HEK293 cells expressing the human GIP R, GLP-1 R or GCG R (stable cell lines generated through transfection of the cDNA for human GIP R, GLP-1 R or GCG R and selection of stable clones) were seeded at 30,000 cells/well in 96-well microtiter plates coated with 0.01% poly-L-lysine, and grown for 1 day in culture in 200 μl growth medium (DMEM, 10% FCS, Penicillin (100 IU/ml), Streptomycin (100 μg/ml)). On the day of analysis, growth medium was removed and the cells were washed once with 150 μl Tyrode's buffer (Tyrode's Salts (9.6 g/I), 10 mM HEPES, pH 7.4). […] The Assay buffer was removed and cells are lysed in 80 μl Lysis buffer (0.1% w/v BSA, 5 mM HEPES, 0.3% v/v Tween-20) per well. From each well 10 μl of lysed cells were transferred to a 384-well plate and mixed with 15 μl bead-mix (1 Unit/15 μl anti-cAMP Acceptor Beads, 1 Unit/15 μl Donor Beads, and 1 Unit/15 μl Biotinylated cAMP in Assay Buffer). The plates were mixed and incubated in the dark for an hour at room temperature before measuring using an Envision™ plate reader (Perkin-Elmer).
(§2) The resulting cAMP curves were plotted as absolute cAMP concentrations (nM) over log (test compound concentration) and analyzed using the curve fitting program XLfit.
(§3) Parameters calculated to describe both the potency as well as the agonistic activity of each test compound on the receptors were:
(§4) EC50, a concentration resulting in a half-maximal elevation of cAMP levels, reflecting the potency of the test compound.
Protocol for human GLP-1 R: as §1, §2, §3, §4

In the case of `CC[C@H](C)[C@H](NC(=O)[C@H](CO)NC(=O)[C@H](Cc1ccc(O)cc1)NC(=O)[C@H](CC(=O)O)NC(=O)[C@H](CO)NC(=O)[C@@H](NC(=O)[C@H](Cc1ccccc1)NC(=O)[C@@H](NC(=O)CNC(=O)[C@H](CCC(N)=O)NC(=O)C(C)(C)NC(=O)[C@@H](N)Cc1ccc(O)cc1)[C@@H](C)O)[C@@H](C)O)C(=O)N[C@@H](Cc1ccc(O)cc1)C(=O)N[C@@H](CC(C)C)C(=O)N[C@@H](CC(=O)O)C(=O)N[C@@H](CCC(=O)O)C(=O)N[C@@H](CCCCN)C(=O)N[C@@H](C)C(=O)N[C@@H](C)C(=O)N[C@@H](CCCCN)C(=O)N[C@@H](CC(=O)O)C(=O)N[C@@H](Cc1ccccc1)C(=O)N[C@H](C(=O)N[C@@H](CCC(=O)O)C(=O)N[C@@H](Cc1c[nH]c2ccccc12)C(=O)N[C@@H](CC(C)C)C(=O)N[C@@H](CC(C)C)C(=O)N[C@@H](CO)C(=O)N[C@@H](C)C(N)=O)C(C)C` [Compound 17] (HELM PEPTIDE1{Y.[Aib].Q.G.T.F.T.S.D.Y.S.I.Y.L.D.E.K.A.A.K.D.F.V.E.W.L.L.S.A.[am]}$$$$V2.0), at human GLP-1 R, the EC50 was 0.013 nM. Take `CC(C)C[C@H](NC(=O)[C@H](C)NC(=O)[C@H](CCCCN)NC(=O)[C@H](CO)NC(=O)[C@H](Cc1ccc(O)cc1)NC(=O)[C@H](CC(=O)O)NC(=O)[C@H](CO)NC(=O)[C@@H](NC(=O)[C@H](Cc1ccccc1)NC(=O)[C@@H](NC(=O)CNC(=O)[C@H](CCC(N)=O)NC(=O)C(C)(C)NC(=O)[C@@H](N)Cc1ccc(O)cc1)[C@@H](C)O)[C@@H](C)O)C(=O)N[C@@H](CC(=O)O)C(=O)N[C@@H](CCC(=O)O)C(=O)N[C@@H](CCCCN)C(=O)N[C@@H](C)C(=O)N[C@@H](C)C(=O)N[C@@H](CCCCN)C(=O)N[C@@H](CCC(=O)O)C(=O)N[C@@H](Cc1ccccc1)C(=O)N[C@H](C(=O)N[C@@H](CCC(=O)O)C(=O)N[C@@H](Cc1c[nH]c2ccccc12)C(=O)N[C@@H](CC(C)C)C(=O)N[C@@H](CC(C)C)C(=O)N[C@@H](CO)C(=O)N[C@@H](C)C(N)=O)C(C)C` [Compound 21] (HELM PEPTIDE1{Y.[Aib].Q.G.T.F.T.S.D.Y.S.K.A.L.D.E.K.A.A.K.E.F.V.E.W.L.L.S.A.[am]}$$$$V2.0): the EC50 on human GLP-1 R is 0.015 nM. The same measure, in the same setting: as for `CC(C)C[C@H](NC(=O)[C@H](CC(C)C)NC(=O)[C@H](Cc1c[nH]c2ccccc12)NC(=O)[C@H](CCC(=O)O)NC(=O)[C@@H](NC(=O)[C@H](Cc1ccccc1)NC(=O)[C@H](CCC(=O)O)NC(=O)[C@H](CCCCN)NC(=O)[C@H](CCC(N)=O)NC(=O)[C@H](C)NC(=O)[C@H](CCCCN)NC(=O)[C@H](CCCCN)NC(=O)[C@H](CCC(=O)O)NC(=O)[C@H](CC(C)C)NC(=O)[C@H](Cc1ccc(O)cc1)NC(=O)[C@H](CCCCN)NC(=O)[C@H](CO)NC(=O)[C@H](Cc1ccc(O)cc1)NC(=O)[C@H](CC(=O)O)NC(=O)[C@H](CO)NC(=O)[C@@H](NC(=O)[C@H](Cc1ccccc1)NC(=O)[C@@H](NC(=O)CNC(=O)[C@H](CCC(N)=O)NC(=O)C(C)(C)NC(=O)[C@@H](N)Cc1ccc(O)cc1)[C@@H](C)O)[C@@H](C)O)C(C)C)C(=O)N[C@@H](CO)C(=O)N[C@@H](C)C(N)=O` [Compound 22] (HELM PEPTIDE1{Y.[Aib].Q.G.T.F.T.S.D.Y.S.K.Y.L.E.K.K.A.Q.K.E.F.V.E.W.L.L.S.A.[am]}$$$$V2.0), the figure is 0.03 nM. In the case of `CCCCCCCCCCCCCCCC(=O)N[C@@H](CCC(=O)NCCCC[C@H](NC(=O)[C@H](CCC(=O)O)NC(=O)[C@H](CC(C)C)NC(=O)[C@H](Cc1ccc(O)cc1)NC(=O)[C@@H](NC(=O)[C@H](CO)NC(=O)[C@H](Cc1ccc(O)cc1)NC(=O)[C@H](CC(=O)O)NC(=O)[C@H](CO)NC(=O)[C@@H](NC(=O)[C@H](Cc1ccccc1)NC(=O)[C@@H](NC(=O)CNC(=O)[C@H](CCC(N)=O)NC(=O)C(C)(C)NC(=O)[C@@H](N)Cc1ccc(O)cc1)[C@@H](C)O)[C@@H](C)O)[C@@H](C)CC)C(=O)N[C@@H](CCCCN)C(=O)N[C@@H](C)C(=O)N[C@@H](C)C(=O)N[C@@H](CCCCN)C(=O)N[C@@H](CCC(=O)O)C(=O)N[C@@H](Cc1ccccc1)C(=O)N[C@H](C(=O)N[C@@H](CCC(=O)O)C(=O)N[C@@H](Cc1c[nH]c2ccccc12)C(=O)N[C@@H](CC(C)C)C(=O)N[C@@H](CC(C)C)C(=O)N[C@@H](CO)C(=O)N[C@@H](C)C(N)=O)C(C)C)C(=O)O` [Compound 24] (HELM PEPTIDE1{Y.[Aib].Q.G.T.F.T.S.D.Y.S.I.Y.L.E.K.K.A.A.K.E.F.V.E.W.L.L.S.A.[am]}|PEPTIDE2{[CCCCCCCCCCCCCCCC(=O)[*:2]].[gGlu]}$PEPTIDE1,PEPTIDE2,16:R3-2:R2$$$V2.0), the EC50 at human GLP-1 R came to 0.11 nM. Consider `CCCCCCCCCCCCCCCC(=O)N[C@@H](CCC(=O)NCCCC[C@H](NC(=O)[C@H](CCCCN)NC(=O)[C@H](CCC(=O)O)NC(=O)[C@H](CC(C)C)NC(=O)[C@H](Cc1ccc(O)cc1)NC(=O)[C@@H](NC(=O)[C@H](CO)NC(=O)[C@H](Cc1ccc(O)cc1)NC(=O)[C@H](CC(=O)O)NC(=O)[C@H](CO)NC(=O)[C@@H](NC(=O)[C@H](Cc1ccccc1)NC(=O)[C@@H](NC(=O)CNC(=O)[C@H](CCC(N)=O)NC(=O)C(C)(C)NC(=O)[C@@H](N)Cc1ccc(O)cc1)[C@@H](C)O)[C@@H](C)O)[C@@H](C)CC)C(=O)N[C@@H](C)C(=O)N[C@@H](C)C(=O)N[C@@H](CCCCN)C(=O)N[C@@H](CCC(=O)O)C(=O)N[C@@H](Cc1ccccc1)C(=O)N[C@H](C(=O)N[C@@H](CCC(=O)O)C(=O)N[C@@H](Cc1c[nH]c2ccccc12)C(=O)N[C@@H](CC(C)C)C(=O)N[C@@H](CC(C)C)C(=O)N[C@@H](CO)C(=O)N[C@@H](C)C(=O)NCC(=O)N1CCC[C@H]1C(=O)N[C@@H](CO)C(=O)N[C@@H](CO)C(=O)NCC(=O)N[C@@H](C)C(=O)N1CCC[C@H]1C(=O)N1CCC[C@H]1C(=O)N1CCC[C@H]1C(=O)N[C@@H](CO)C(N)=O)C(C)C)C(=O)O` [Compound 32] (HELM PEPTIDE1{Y.[Aib].Q.G.T.F.T.S.D.Y.S.I.Y.L.E.K.K.A.A.K.E.F.V.E.W.L.L.S.A.G.P.S.S.G.A.P.P.P.S.[am]}|PEPTIDE2{[CCCCCCCCCCCCCCCC(=O)[*:2]].[gGlu]}$PEPTIDE1,PEPTIDE2,17:R3-2:R2$$$V2.0), for which the EC50 on human GIP R amounted to 0.04 nM. On to `CCCCCCCCCCCCCCCCCC(=O)N[C@@H](CCC(=O)NCCOCCOCC(=O)NCCOCCOCC(=O)NCCCC[C@H](NC(=O)[C@H](CCCCN)NC(=O)[C@H](CCC(=O)O)NC(=O)[C@H](CC(C)C)NC(=O)[C@H](C)NC(=O)[C@@H](NC(=O)[C@H](CO)NC(=O)[C@H](Cc1ccc(O)cc1)NC(=O)[C@H](CC(=O)O)NC(=O)[C@H](CO)NC(=O)[C@@H](NC(=O)[C@H](Cc1ccccc1)NC(=O)[C@@H](NC(=O)CNC(=O)[C@H](CCC(N)=O)NC(=O)C(C)(C)NC(=O)[C@@H](N)Cc1ccc(O)cc1)[C@@H](C)O)[C@@H](C)O)[C@@H](C)CC)C(=O)N[C@@H](C)C(=O)N[C@@H](CCC(N)=O)C(=O)N[C@@H](CCCNC(=N)N)C(=O)N[C@@H](C)C(=O)N[C@@H](Cc1ccccc1)C(=O)N[C@H](C(=O)N[C@@H](CCC(=O)O)C(=O)N[C@@H](Cc1c[nH]c2ccccc12)C(=O)N[C@@H](CC(C)C)C(=O)N[C@@H](CC(C)C)C(=O)N[C@@H](C)C(=O)N[C@@H](CCC(N)=O)C(=O)N[C@@H](CCCCN)C(N)=O)C(C)C)C(=O)O` [Compound 46] (H-Y[Aib]QGTFTSDYSIALEKK([AEEA-AEEA-γGlu-Stearoyl])AQRAFVEWLLAQK-NH2), for which, at human GLP-1 R, the EC50 was found to be 0.016 nM.
